These are literature values, as cited in article PMC2217447 (The Journal of General Physiology, 2004).

Series [1] has as its target T1, Shaker B K^+ channels (Drosophila melanogaster, UniProt P08510). The conditions noted are these: external TEA, ref Gómez-Lagunas, 1997.
For series [2], the target named is T1, Shaker B K^+ channels. Particulars: for effect of external K^+ on block of Shaker (in words): ref Goldstein and Miller, 1993.

“Also recorded” adds a separate entry of the source. Read-outs that look alike come from different tables or passages of the source.

T1 sequence (P08510 whole entry): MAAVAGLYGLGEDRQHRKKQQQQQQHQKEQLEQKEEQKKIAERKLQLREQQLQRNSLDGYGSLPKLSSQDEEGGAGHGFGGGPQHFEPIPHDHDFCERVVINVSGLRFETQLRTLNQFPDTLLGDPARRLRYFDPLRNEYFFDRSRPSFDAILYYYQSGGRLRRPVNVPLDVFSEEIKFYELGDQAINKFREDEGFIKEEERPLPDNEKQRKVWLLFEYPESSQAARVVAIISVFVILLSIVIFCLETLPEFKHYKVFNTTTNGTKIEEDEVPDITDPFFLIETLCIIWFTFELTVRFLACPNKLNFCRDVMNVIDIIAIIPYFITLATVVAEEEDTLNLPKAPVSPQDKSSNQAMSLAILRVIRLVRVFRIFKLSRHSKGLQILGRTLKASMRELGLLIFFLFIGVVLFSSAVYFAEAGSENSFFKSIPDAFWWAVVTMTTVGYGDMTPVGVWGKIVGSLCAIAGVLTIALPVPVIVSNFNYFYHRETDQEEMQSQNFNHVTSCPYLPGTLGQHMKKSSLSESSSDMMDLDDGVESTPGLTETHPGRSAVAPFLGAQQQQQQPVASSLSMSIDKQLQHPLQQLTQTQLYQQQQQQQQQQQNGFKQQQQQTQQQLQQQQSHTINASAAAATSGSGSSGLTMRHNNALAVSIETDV

For `CC[N+](CC)(CC)CC` [TEAo, tetraethylammonium], the “change of binding affinity in 0 K^+ (in words)” value in series [1] (Shaker channels) is “did not find a significant change in the binding affinity”. Besides, the “affinity (Kd) for inhibiting drop of GK vs block of IK (in words)” value in series [1] was “basically the same affinity (Kd) with which it blocks the K^+ current (IK)”. The “effect on collapse of GK in 0 K^+ (in words)” value is given as “impedes the drop of GK in 0 K^+; also recorded: impedes the collapse of GK” in series [1] and “the collapse of GK is prevented” in series [1] (listed as TEA). With “ChTx R25Q: mutant R25Q (a glutamine substituting arginine in position 25) of ChTx”, the “effect of external K^+ on block of Shaker (in words)” value in series [2] is “destabilized by Ko ^+ ions; also recorded: decreased by Ko ^+”. Regarding Agitoxin2 [AgTx2], in series [2] (ref Ranganathan et al., 1996), the “effect of external K^+ on binding to Shaker (in words)” value is “destabilized by Ko ^+ ions”.

In the case of Charybdotoxin [ChTx], in series [2], the “effect of external K^+ on block of Shaker (in words)” value was “not altered by external K^+ ions; also recorded: not destabilized by Ko ^+”.
